According to patent US12559506B2, “Indazole based compounds and associated methods of use” (Arvinas Operations, Inc., priority 2021, dated 2026):

How the values were obtained:
G2019S LRRK2 = target: T1, G2019S LRRK2 (Homo sapiens, UniProt Q5S007, G2019S); assay: LRRK2 degradation assay, HiBit-tagged G2019S LRRK2 expressed from plasmid in HEK293 cells (Nano-Glo Dual-Luciferase); assay type: cell-based; conditions: HiBit-tagged G2019S LRRK2 in HEK293 cells, 24 hours
T1 construct: expressed in transfected cells; host or cells: HEK293 (ATCC CRL-1573), transient transfection, mammalian expression vector with ubiquitin promoter
T1 sequence (Q5S007 whole entry G2019S): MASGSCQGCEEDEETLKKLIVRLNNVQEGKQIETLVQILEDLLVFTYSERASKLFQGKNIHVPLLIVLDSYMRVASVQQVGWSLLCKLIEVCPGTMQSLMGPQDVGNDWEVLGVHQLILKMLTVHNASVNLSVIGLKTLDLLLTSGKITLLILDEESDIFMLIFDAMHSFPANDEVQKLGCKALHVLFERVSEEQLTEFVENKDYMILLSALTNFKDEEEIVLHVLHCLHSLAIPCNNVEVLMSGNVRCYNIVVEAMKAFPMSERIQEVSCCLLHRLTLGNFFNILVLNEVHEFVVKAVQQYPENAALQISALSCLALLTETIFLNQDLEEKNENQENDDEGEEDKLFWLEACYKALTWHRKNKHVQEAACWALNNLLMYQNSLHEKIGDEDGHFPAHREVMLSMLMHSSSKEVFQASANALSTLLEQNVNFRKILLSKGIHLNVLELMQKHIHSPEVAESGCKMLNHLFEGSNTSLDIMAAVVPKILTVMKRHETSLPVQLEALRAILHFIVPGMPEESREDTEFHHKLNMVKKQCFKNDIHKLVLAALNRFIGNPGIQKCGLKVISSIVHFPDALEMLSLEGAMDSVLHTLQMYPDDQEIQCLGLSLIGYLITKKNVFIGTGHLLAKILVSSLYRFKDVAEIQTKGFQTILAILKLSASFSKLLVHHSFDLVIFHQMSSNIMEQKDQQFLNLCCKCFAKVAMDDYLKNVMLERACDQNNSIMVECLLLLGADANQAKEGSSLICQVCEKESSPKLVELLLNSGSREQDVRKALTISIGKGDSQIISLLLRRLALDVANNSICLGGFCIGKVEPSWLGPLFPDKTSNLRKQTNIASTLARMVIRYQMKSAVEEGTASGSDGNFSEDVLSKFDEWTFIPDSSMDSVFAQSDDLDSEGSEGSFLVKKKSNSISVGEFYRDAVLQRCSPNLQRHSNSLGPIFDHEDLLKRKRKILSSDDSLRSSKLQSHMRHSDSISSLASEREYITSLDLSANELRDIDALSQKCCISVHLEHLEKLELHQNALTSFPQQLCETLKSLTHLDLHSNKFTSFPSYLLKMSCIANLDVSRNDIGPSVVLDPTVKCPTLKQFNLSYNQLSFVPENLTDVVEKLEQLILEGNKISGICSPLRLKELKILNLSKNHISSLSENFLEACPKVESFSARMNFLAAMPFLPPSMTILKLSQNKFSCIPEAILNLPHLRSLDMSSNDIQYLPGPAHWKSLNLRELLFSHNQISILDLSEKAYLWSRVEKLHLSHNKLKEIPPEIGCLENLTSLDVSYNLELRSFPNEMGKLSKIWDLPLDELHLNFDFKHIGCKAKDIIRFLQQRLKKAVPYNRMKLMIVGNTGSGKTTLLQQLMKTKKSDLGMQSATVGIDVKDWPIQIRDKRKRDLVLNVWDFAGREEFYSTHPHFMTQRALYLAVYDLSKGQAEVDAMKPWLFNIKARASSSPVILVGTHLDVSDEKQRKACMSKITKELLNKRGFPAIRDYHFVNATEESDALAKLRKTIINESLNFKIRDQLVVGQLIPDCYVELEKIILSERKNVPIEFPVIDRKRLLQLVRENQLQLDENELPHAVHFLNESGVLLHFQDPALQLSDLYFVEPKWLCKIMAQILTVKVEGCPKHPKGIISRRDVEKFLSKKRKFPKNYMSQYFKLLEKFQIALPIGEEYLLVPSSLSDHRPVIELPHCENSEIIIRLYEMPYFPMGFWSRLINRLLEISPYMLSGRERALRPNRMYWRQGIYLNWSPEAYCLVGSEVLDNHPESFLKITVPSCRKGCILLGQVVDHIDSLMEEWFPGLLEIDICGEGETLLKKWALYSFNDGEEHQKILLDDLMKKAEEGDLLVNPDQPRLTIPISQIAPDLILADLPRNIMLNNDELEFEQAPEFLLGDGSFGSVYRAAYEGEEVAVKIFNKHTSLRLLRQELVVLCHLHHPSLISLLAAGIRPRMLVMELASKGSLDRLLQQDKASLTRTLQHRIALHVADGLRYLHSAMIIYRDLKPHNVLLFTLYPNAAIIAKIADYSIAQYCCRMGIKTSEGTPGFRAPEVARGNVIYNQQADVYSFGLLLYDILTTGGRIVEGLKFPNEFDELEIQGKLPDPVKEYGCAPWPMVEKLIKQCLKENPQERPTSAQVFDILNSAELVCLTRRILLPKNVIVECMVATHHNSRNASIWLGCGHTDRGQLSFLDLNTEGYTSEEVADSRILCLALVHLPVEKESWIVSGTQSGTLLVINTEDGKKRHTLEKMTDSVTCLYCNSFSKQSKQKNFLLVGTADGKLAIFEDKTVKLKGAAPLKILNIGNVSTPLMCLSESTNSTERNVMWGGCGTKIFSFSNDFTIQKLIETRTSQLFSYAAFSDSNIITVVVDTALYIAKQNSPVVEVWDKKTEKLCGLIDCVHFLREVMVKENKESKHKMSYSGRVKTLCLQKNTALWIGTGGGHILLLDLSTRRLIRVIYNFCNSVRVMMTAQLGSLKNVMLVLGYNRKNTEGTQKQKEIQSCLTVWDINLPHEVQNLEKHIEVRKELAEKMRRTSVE
Summary of the method: (§1)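 Degradation read as Nano-Glo HiBiT signal over firefly luciferase (cell number/viability) after 24 h compound exposure of transiently transfected HEK293 expressing C-terminally HiBiT-tagged wildtype or G2019S LRRK2. Data as % DMSO; DC50/Dmax fitted per plate, triplicate plates repeated twice.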

wildtype LRRK2 = target: T2, wildtype LRRK2 (Homo sapiens, UniProt Q5S007); assay: LRRK2 degradation assay, HiBit-tagged wildtype LRRK2 expressed from plasmid in HEK293 cells (Nano-Glo Dual-Luciferase); assay type: cell-based; conditions: HiBit-tagged wildtype LRRK2 in HEK293 cells, 24 hours; for Dmax: read-out: **WT Dmax (%); for DC50: read-out: *WT DC50
T2 construct: expressed in transfected cells; host or cells: HEK293 (ATCC CRL-1573), transient transfection, mammalian expression vector with ubiquitin promoter
T2 sequence (Q5S007 whole entry): as the sequence (Q5S007 whole entry G2019S) above, with S2019G counted along it
Summary of the method: as §1

| Structure (SMILES) | DC50 (G2019S LRRK2) [nM] | Dmax (G2019S LRRK2) [%] | Dmax (wildtype LRRK2) [%] | DC50 (wildtype LRRK2) [nM] |
| --- | --- | --- | --- | --- |
| CC1(Oc2ccc3[nH]nc(-c4cc(N5CCC(CN6CC[C@@H](OC7CCN(c8ccc9c(c8)C(=O)N(C8CCC(=O)NC8=O)C9=O)CC7)C6)CC5)ncn4)c3c2)CC1 (stereo partly drawn) [Compound 119, 2-(2,6-dioxopiperidin-3-yl)-5-(4-{[(3R)-1-[(1-{6-[5-(1-methylcyclopropoxy)-1H-indazol-3-yl]pyrimidin-4-yl}piperidin-4-yl)methyl]pyrrolidin-3-yl]oxy}piperidin-1-yl)-2,3-dihydro-1H-isoindole-1,3-dione] | < 10 | < 50 | < 50 | < 10 |
| C[C@H]1CN(c2cc(-c3n[nH]c4ccc(OC5(C)CC5)cc34)ncn2)CCN1CC1CN(CC2CCN(c3ccc4c(c3)C(=O)N(C3CCC(=O)NC3=O)C4=O)CC2)C1 (stereo partly drawn) [Compound 122, 2-(2,6-dioxo-3-piperidyl)-5-[4-[[3-[[(2S)-2-methyl-4-[6-[5-(1-methylcyclopropoxy)-1H-indazol-3-yl]pyrimidin-4-yl]piperazin-1-yl]methyl]azetidin-1-yl]methyl]-1-piperidyl]isoindoline-1,3-dione] | < 10 | 50 to 70 | 50 to 70 | < 10 |
| CC1(Oc2ccc3[nH]nc(-c4cc(N5CCN(CC67CC(CN8CCN(c9ccc%10c(c9)C(=O)N(C9CCC(=O)NC9=O)C%10=O)CC8)(C6)C7)CC5)ncn4)c3c2)CC1 (centres unmarked) [Compound 124, 2-(2,6-dioxo-3-piperidyl)-5-[4-[[3-[[4-[6-[5-(1-methylcyclopropoxy)-2H-indazol-3-yl]pyrimidin-4-yl]piperazin-1-yl]methyl]-1-bicyclo[1.1.1]pentanyl]methyl]piperazin-1-yl]isoindoline-1,3-dione] | 10 to 50 | < 50 | < 50 | < 10 |
| CC1(Oc2ccc3[nH]nc(-c4cc(N5CCC(CN6CC(CN7CCN(c8ccc9c(c8)C(=O)N(C8CCC(=O)NC8=O)C9=O)CC7)C6)CC5)ncn4)c3c2)CC1 (centres unmarked) [Compound 125, 2-(2,6-dioxo-3-piperidyl)-5-[4-[[11-[[1-[6-[5-(1-methylcyclopropoxy)-1H-indazol-3-yl]pyrimidin-4-yl]-4-piperidyl]methyl]azetidin-3-yl]methyl]piperazin-1-yl]isoindoline-1,3-dione] | < 10 | 50 to 70 | 50 to 70 | < 10 |
| CC1(Oc2ccc3[nH]nc(-c4cc(N5CCC(O[C@H]6C[C@H](OC7CCN(c8ccc9c(c8)C(=O)N(C8CCC(=O)NC8=O)C9=O)CC7)C6)CC5)ncn4)c3c2)CC1 (some centres unmarked) [Compound 126, 2-(2,6-dioxo-3-piperidyl)-5-[4-[3-[[1-[6-[5-(1-methylcyclopropoxy)-1H-indazol-3-yl]pyrimidin-4-yl]-4-piperidyl]oxy]cyclobutoxy]-1-piperidyl]isoindoline-1,3-dione] | 10 to 50 | < 50 | < 50 | 10 to 50 |
| CC1(Oc2ccc3[nH]nc(-c4ccnc(N5CCC(O[C@H]6C[C@H](OC7CCN(c8ccc9c(c8)C(=O)N(C8CCC(=O)NC8=O)C9=O)CC7)C6)CC5)c4)c3c2)CC1 (some centres unmarked) [Compound 127, 2-(2,6-dioxo-3-piperidyl)-5-[4-[3-[[1-[4-[5-(1-methylcyclopropoxy)-1H-indazol-3-yl]-2-pyridyl]-4-piperidyl]oxy]cyclobutoxy]-1-piperidyl]isoindoline-1,3-dione] | 10 to 50 | < 50 | < 50 | 10 to 50 |
| CC1(Oc2ccc3[nH]nc(-c4ccnc(N5CC(CN6CCN(CC7CCN(c8ccc9c(c8)C(=O)N(C8CCC(=O)NC8=O)C9=O)CC7)CC6)C5)c4)c3c2)CC1 (centres unmarked) [Compound 128, 2-(2,6-dioxopiperidin-3-yl)-5-[4-({4-[(1-{4-[5-(1-methylcyclopropoxy)-1H-indazol-3-yl]pyridin-2-yl}azetidin-3-yl)methyl]piperazin-1-yl}methyl)piperidin-1-yl]-2,3-dihydro-1H-isoindole-1,3-dione] | < 10 | 50 to 70 | 50 to 70 | < 10 |
| CC1(Oc2ccc3[nH]nc(-c4cc(N5CC(CN6CCN(CC7CCN(c8ccc9c(c8)C(=O)N(C8CCC(=O)NC8=O)C9=O)CC7)CC6)C5)ncn4)c3c2)CC1 (centres unmarked) [Compound 129, 2-(2,6-dioxo-3-piperidyl)-5-[4-[[4-[[1-[6-[5-(1-methylcyclopropoxy)-1H-indazol-3-yl]pyrimidin-4-yl]azetidin-3-yl]methyl]piperazin-1-yl]methyl]-1-piperidyl]isoindoline-1,3-dione] | < 10 | ≥ 70 | ≥ 70 | < 10 |
| CC1(Oc2ccc3[nH]nc(-c4cc(N5CCC(CN6CCN(CC7CN(c8ccc9c(c8)C(=O)N(C8CCC(=O)NC8=O)C9=O)C7)CC6)CC5)ncn4)c3c2)CC1 (centres unmarked) [Compound 133, 2-(2,6-dioxo-3-piperidyl)-5-[3-[[4-[[1-[6-[5-(1-methylcyclopropoxy)-1H-indazol-3-yl]pyrimidin-4-yl]-4-piperidyl]methyl]piperazin-1-yl]methyl]azetidin-1-yl]isoindoline-1,3-dione] | < 10 | 50 to 70 | 50 to 70 | < 10 |
| CC1(Oc2ccc3n[nH]c(-c4cc(N5CCC(CN6CCN(CC7(F)CN(c8ccc9c(c8)C(=O)N(C8CCC(=O)NC8=O)C9=O)C7)CC6)CC5)ncn4)c3c2)CC1 (centres unmarked) [Compound 134, 2-(2,6-dioxo-3-piperidyl)-5-[3-fluoro-3-[[4-[[1-[6-[5-(1-methylcyclopropoxy)-2H-indazol-3-yl]pyrimidin-4-yl]-4-piperidyl]methyl]piperazin-1-yl]methyl]azetidin-1-yl]isoindoline-1,3-dione] | < 10 | 50 to 70 | 50 to 70 | < 10 |
| CC1(Oc2ccc3n[nH]c(-c4cc(N5CCN(CC6(F)CCN(CC7CN(c8ccc9c(c8)C(=O)N(C8CCC(=O)NC8=O)C9=O)C7)CC6)CC5)ncn4)c3c2)CC1 (centres unmarked) [Compound 135, 2-(2,6-dioxo-3-piperidyl)-5-[3-[[4-fluoro-4-[[4-[6-[5-(1-methylcyclopropoxy)-2H-indazol-3-yl]pyrimidin-4-yl]piperazin-1-yl]methyl]-1-piperidyl]methyl]azetidin-1-yl]isoindoline-1,3-dione] | < 10 | 50 to 70 | < 50 | < 10 |
| CC1(Oc2ccc3n[nH]c(-c4cc(N5CCN(CC6(F)CCN(C(=O)C7CN(c8ccc9c(c8)C(=O)N(C8CCC(=O)NC8=O)C9=O)C7)CC6)CC5)ncn4)c3c2)CC1 (centres unmarked) [Compound 136, 2-(2,6-dioxo-3-piperidyl)-5-[3-[4-fluoro-4-[[4-[6-[5-(1-methylcyclopropoxy)-2H-indazol-3-yl]pyrimidin-4-yl]piperazin-1-yl]methyl]piperidine-1-carbonyl]azetidin-1-yl]isoindoline-1,3-dione] | < 10 | 50 to 70 | 50 to 70 | < 10 |
| C[C@H]1CN(c2cc(-c3n[nH]c4ccc(OC5(C)CC5)cc34)ncn2)CCN1CCC1CCN(CC2CCN(c3cccc4c3C(=O)N(C3CCC(=O)NC3=O)C4=O)CC2)CC1 (stereo partly drawn) [Compound 138, 2-(2,6-dioxo-3-piperidyl)-4-[4-[[4-[2-[(2S)-2-methyl-4-[6-[5-(1-methylcyclopropoxy)-2H-indazol-3-yl]pyrimidin-4-yl]piperazin-1-yl]ethyl]-1-piperidyl]methyl]-1-piperidyl]isoindoline-1,3-dione] | < 10 | ≥ 70 | ≥ 70 | 10 to 50 |
| C[C@H]1CN(c2cc(-c3n[nH]c4ccc(OC5(C)CC5)cc34)ncn2)CCN1CC1CCN(CCCOc2cccc3c2C(=O)N(C2CCC(=O)NC2=O)C3=O)CC1 (stereo partly drawn) [Compound 139, 2-(2,6-dioxo-3-piperidyl)-4-[3-[4-[[(2S)-2-methyl-4-[6-[5-(1-methylcyclopropoxy)-2H-indazol-3-yl]pyrimidin-4-yl]piperazin-1-yl]methyl]-1-piperidyl]propoxy]isoindoline-1,3-dione] | 10 to 50 | < 50 | < 50 | 10 to 50 |
| C[C@H]1CN(c2cc(-c3n[nH]c4ccc(OC5(C)CC5)cc34)ncn2)CCN1CC1CCN(CCCNc2cccc3c2C(=O)N(C2CCC(=O)NC2=O)C3=O)CC1 (stereo partly drawn) [Compound 140, 2-(2,6-dioxo-3-piperidyl)-4-[3-[4-[[(2S)-2-methyl-4-[6-[5-(1-methylcyclopropoxy)-2H-indazol-3-yl]pyrimidin-4-yl]piperazin-1-yl]methyl]-1-piperidyl]propylamino]isoindoline-1,3-dione] | < 10 | < 50 | < 50 | < 10 |
| C[C@H]1CN(c2cc(-c3n[nH]c4ccc(OC5(C)CC5)cc34)ncn2)CCN1CC1CCN(CCCNc2cccc3c2CN(C2CCC(=O)NC2=O)C3=O)CC1 (stereo partly drawn) [Compound 142, 3-[4-[3-[4-[[(2S)-2-methyl-4-[6-[5-(1-methylcyclopropoxy)-1H-indazol-3-yl]pyrimidin-4-yl]piperazin-1-yl]methyl]-1-piperidyl]propylamino]-1-oxo-isoindolin-2-yl]piperidine-2,6-dione] | 10 to 50 | < 50 | < 50 | 50 to 100 |
| CC1(Oc2ccc3[nH]nc(-c4cc(N5CCN(CC6CCN(CCCCNc7cccc8c7CN(C7CCC(=O)NC7=O)C8=O)CC6)CC5)ncn4)c3c2)CC1 (centres unmarked) [Compound 143, 3-[4-[4-[4-[[4-[6-[5-(1-methylcyclopropoxy)-1H-indazol-3-yl]pyrimidin-4-yl]piperazin-1-yl]methyl]-1-piperidyl]butylamino]-1-oxo-isoindolin-2-yl]piperidine-2,6-dione] | 10 to 50 | 50 to 70 | < 50 | 10 to 50 |
